The values that follow come from US8124624B2, “Substituted sulfonamide compounds” (Gruenenthal GmbH, priority 2008, dated 2012).

Like-named read-outs stand apart in the source and are kept apart here.

One assay addresses T1, human B1R (Homo sapiens, UniProt P46663).
T1 construct: expressed in transfected cells; host or cells: CHO K1 cells (hB1R cells)
T1 sequence (P46663 1-353): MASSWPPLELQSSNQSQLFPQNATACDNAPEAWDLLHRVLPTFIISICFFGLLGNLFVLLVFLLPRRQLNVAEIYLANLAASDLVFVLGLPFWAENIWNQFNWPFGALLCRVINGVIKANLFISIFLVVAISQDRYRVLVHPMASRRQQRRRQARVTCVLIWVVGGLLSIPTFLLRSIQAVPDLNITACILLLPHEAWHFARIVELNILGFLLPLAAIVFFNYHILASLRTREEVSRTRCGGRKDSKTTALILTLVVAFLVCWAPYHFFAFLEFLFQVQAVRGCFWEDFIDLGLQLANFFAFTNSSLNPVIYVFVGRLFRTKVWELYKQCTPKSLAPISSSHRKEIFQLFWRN
Briefly: FLIPR Ca2+ influx assay, B1R antagonism, human (hB1R CHO K1 cells). It is filed as cell-based. As to the method:
(§1) The agonistic or antagonistic action of substances can be quantified on the bradykinin receptor 1 (B1R) of the species human and rat using ectopically expressing cell lines (CHO K1 cells) and with the aid of a Ca^2+-sensitive dye (Fluo-4) using a fluorescent imaging plate reader (FLIPR). The indication in % activation is based on the Ca^2+ signal after addition of Lys-Des-Arg^9-bradykinin (0.5 nM) or Des-Arg^9-bradykinin (100 nM). Antagonists lead to suppression of the Ca^2+ influx after the addition of the agonist. % Inhibition compared with the maximum achievable inhibition is indicated.
(§2) The agonistic or antagonistic action of substances can be determined on the bradykinin receptor 1 (B1R) of the species human and rat using the following assay. According to this assay, the Ca^2+ influx through the channel is quantified with the aid of a Ca^2+-sensitive dye (Fluo-4 type, Molecular Probes Europe BV, Leiden, Netherlands) using a Fluorescent Imaging Plate Reader (FLIPR, Molecular Devices, Sunnyvale, USA).
(§3) Chinese hamster ovary cells (CHO K1 cells) which have been stably transfected with the human B1R gene (hB1R cells) or with the B1R gene of the rat (rB1R cells) are used. For functional studies, the cells are plated out on black 96-well plates having a clear base (BD Biosciences, Heidelberg, Germany or Greiner, Frickenhausen, Germany) in a density of 20,000-35,000 cells/well. The cells are incubated overnight at 37° C. and with 5% CO2 in culture medium (hB1R cells: Nutrient Mixture Ham's F12, Gibco Invitrogen GmbH, Karlsruhe, Germany or DMEM, Sigma-Aldrich, Taufkirchen, Germany; rB1R cells: D-MEM/F12, Gibco Invitrogen GmbH, Karlsruhe, Germany), with 10 vol. % FBS (fetal bovine serum, Gibco Invitrogen GmbH, Karlsruhe, Germany or PAN Biotech GmbH, Aidenbach, Germany).
(§4) On the following day, the cells are loaded for 60 minutes at 37° C. with 2.13 μM Fluo-4 (Molecular Probes Europe BV, Leiden, Netherlands) in HBSS buffer (Hank's buffered saline solution, Gibco Invitrogen GmbH, Karlsruhe, Germany) […] (Sigma-Aldrich, Taufkirchen, Germany) and 10 mM HEPES (Sigma-Aldrich, Taufkirchen, Germany). The plates are then washed twice with HBSS buffer, and HBSS buffer additionally containing 0.1% BSA (bovine serum albumin; Sigma-Aldrich, Taufkirchen, Germany), 5.6 mM glucose and 0.05% gelatin (Merck KGaA, Darmstadt, Germany) is added to the plates. After incubation for a further 20 minutes at room temperature, the plates are inserted into the FLIPR for Ca^2+ measurement.
(§5) Alternatively, washing is carried out with buffer A (15 mM HEPES, 80 mM NaCl, 5 mM KCl, 1.2 mM CaCl2, 0.7 mM MgSO4, 2 g/l glucose, 2.5 mM probenecid) followed by loading with buffer A with added 2.5 μM Fluo-4 and 0.025% Pluronic F127 (Sigma-Aldrich, Taufkirchen, Germany). The cells are then washed twice with buffer A and incubated for 30 minutes at room temperature with buffer A additionally containing 0.05% BSA and 0.05% gelatin and are then inserted into the FLIPR for Ca^2+ measurement.
(§6) The Ca^2+-dependent fluorescence is measured before and after the addition of substances (λex=488 nm, λem=540 nm). Quantification is carried out by measuring the highest fluorescence intensity (FC, fluorescence counts) over time.
(§7) The FLIPR protocol consists of two substance additions. Test substances (10 μM) are first pipetted onto the cells and the Ca^2+ influx is compared with the control (hB1R: Lys-Des-Arg^9-bradykinin >=50 nM; rB1R: Des-Arg^9-bradykinin 10 μM). This gives the activation in %, based on the Ca^2+ signal after addition of Lys-Des-Arg^9-bradykinin (>=50 nM) or Des-Arg^9-bradykinin (10 μM). After 10-20 minutes' incubation, Lys-Des-Arg^9-bradykinin (hB1R) or Des-Arg^9-bradykinin (rB1R) is applied in the concentration of the EC80, and the influx of Ca^2+ is likewise determined. Antagonists lead to suppression of the Ca^2+ influx. The % inhibition compared with the maximum achievable inhibition is calculated. […]

The next assay concerns the target T2, B1R of the rat (Rattus norvegicus, UniProt P97583).
T2 construct: expressed in transfected cells; host or cells: CHO K1 cells (rB1R cells)
T2 sequence (P97583 1-337): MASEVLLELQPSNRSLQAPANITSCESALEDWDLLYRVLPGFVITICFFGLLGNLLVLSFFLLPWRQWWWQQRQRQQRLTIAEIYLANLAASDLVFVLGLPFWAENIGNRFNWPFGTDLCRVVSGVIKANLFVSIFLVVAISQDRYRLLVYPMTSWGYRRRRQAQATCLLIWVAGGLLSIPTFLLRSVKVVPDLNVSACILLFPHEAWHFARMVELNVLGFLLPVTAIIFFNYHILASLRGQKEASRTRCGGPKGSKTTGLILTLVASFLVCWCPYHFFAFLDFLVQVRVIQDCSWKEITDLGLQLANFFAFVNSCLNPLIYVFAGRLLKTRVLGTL
Briefly: FLIPR Ca2+ influx assay, B1R antagonism, rat (rB1R CHO K1 cells). Format: cell-based. The protocol: as §1, §2, §3, §4, §5, §6, §7

[1] abbreviates: CHO-K1, read-out: B1R antagonism, human [10 μM] % inhibition.
[2] abbreviates: CHO-K1, read-out: B1R antagonism, rat [10 μM] % inhibition.
[3] abbreviates: test substance 10 μM, CHO K1 cells stably transfected with human B1R, agonist Lys-Des-Arg9-bradykinin at EC80, % inhibition compared with maximum achievable inhibition, read-out: B1R antagonism, human [10 μM] % inhibition.
[4] abbreviates: test substance 10 μM, CHO K1 cells stably transfected with rat B1R, agonist Des-Arg9-bradykinin at EC80, % inhibition compared with maximum achievable inhibition, read-out: B1R antagonism, rat [10 μM] % inhibition.

Turning to `COc1cc(C)c(S(=O)(=O)N2CCCCC2COCC(=O)N2CCC(CCN3CCCC3)(c3cccnc3)CC2)c(C)c1` (centres unmarked) [Example 2, 2-((1-(4-Methoxy-2,6-dimethylphenylsulfonyl)piperidin-2-yl)methoxy)-1-(4-(pyridin-3-yl)-4-(2-(pyrrolidin-1-yl)ethyl)piperidin-1-yl)ethanone], the results for the inhibition at 10 µM at human B1R (setting [1]) and on B1R of the rat (setting [2]) were 103% and 102%, respectively.
The matching figures for `COc1cc(C)c(S(=O)(=O)N(C)CCOCC(=O)N2CCC(CCN3CCCC3)(c3cccnc3)CC2)c(C)c1` [Example 3, 4-Methoxy-N,2,6-trimethyl-N-(2-(2-oxo-2-(4-(pyridin-3-yl)-4-(2-(pyrrolidin-1-yl)ethyl)piperidin-1-yl)ethoxy)ethyl)benzenesulfonamide]: 103% and 101%.
The matching figures for `O=C(CC1CCCCN1S(=O)(=O)c1cccc(C(F)(F)F)c1)N1CCC(CCN2CCCC2)(c2cccnc2)CC1` (centres unmarked) [Example 4, 1-(4-(Pyridin-3-yl)-4-(2-(pyrrolidin-1-yl)ethyl)piperidin-1-yl)-2-(1-(3-(trifluoromethyl)phenylsulfonyl)piperidin-2-yl)ethanone]: 103% and 102%.
`Cc1cc(S(=O)(=O)N2CCCCC2CCC(=O)N2CCC(CCN3CCCC3)(c3cccnc3)CC2)c(C)cc1Cl` (centres unmarked) [Example 5, 3-(1-(4-Chloro-2,5-dimethylphenylsulfonyl)piperidin-2-yl)-1-(4-(pyridin-3-yl)-4-(2-(pyrrolidin-1-yl)ethyl)piperidin-1-yl)propan-1-one]: the inhibition (usually the drop in the measured response relative to a control, in per cent) at 10 µM on human B1R (setting [3]) was found to be 101%; on B1R of the rat (setting [4]), 61%.
For `O=C(COCC1CCc2ccccc2N1S(=O)(=O)c1ccc(Cl)c(Cl)c1)N1CCC(CCN2CCCC2)(c2cccnc2)CC1` (centres unmarked) [Example 6, 2-((1-(3,4-Dichlorophenylsulfonyl)-1,2,3,4-tetrahydroquinolin-2-yl)methoxy)-1-(4-(pyridin-3-yl)-4-(2-(pyrrolidin-1-yl)ethyl)piperidin-1-yl)ethanone], in that order: 100% and 85%.
The matching figures for `CN(C)CCC1(c2cccnc2)CCN(C(=O)CC(NS(=O)(=O)c2ccc3ccccc3c2)c2ccccc2)CC1` (centres unmarked) [Example 7, N-(3-(4-(2-(Dimethylamino)ethyl)-4-(pyridin-3-yl)piperidin-1-yl)-3-oxo-1-phenylpropyl)naphthalene-2-sulfonamide]: 89% and 37%.
The matching figures for `COc1cc(C)c(S(=O)(=O)N2CCCCC2COCC(=O)N2CCC(CCN(C)C)(c3cccnc3)CC2)c(C)c1` (centres unmarked) [Example 8, 1-(4-(2-(Dimethylamino)ethyl)-4-(pyridin-3-yl)piperidin-1-yl)-2-((1-(4-methoxy-2,6-dimethylphenylsulfonyl)piperidin-2-yl)methoxy)ethanone]: 104% and 102%.
As for `COc1cc(C)c(S(=O)(=O)N(C)CCOCC(=O)N2CCC(CCN(C)C)(c3cccnc3)CC2)c(C)c1` [Example 9, N-(2-(2-(4-(2-(Dimethylamino)ethyl)-4-(pyridin-3-yl)piperidin-1-yl)-2-oxoethoxy)ethyl)-4-methoxy-N,2,6-trimethylbenzenesulfonamide], the inhibition at 10 µM was determined as 104% at human B1R (setting [3]) and 102% on B1R of the rat (setting [4]).
Turning to `CN(C)CCC1(c2cccnc2)CCN(C(=O)CC2CCCCN2S(=O)(=O)c2cccc(C(F)(F)F)c2)CC1` (centres unmarked) [Example 10, 1-(4-(2-(Dimethylamino)ethyl)-4-(pyridin-3-yl)piperidin-1-yl)-2-(1-(3-(trifluoromethyl)phenylsulfonyl)piperidin-2-yl)ethanone], the inhibition at 10 µM was found to be 103% on human B1R (setting [3]) and 65% at B1R of the rat (setting [4]).
As to `Cc1cc(S(=O)(=O)N2CCCCC2CCC(=O)N2CCC(CCN(C)C)(c3cccnc3)CC2)c(C)cc1Cl` (centres unmarked) [Example 11, 3-(1-(4-Chloro-2,5-dimethylphenylsulfonyl)piperidin-2-yl)-1-(4-(2-(dimethylamino)ethyl)-4-(pyridin-3-yl)piperidin-1-yl)propan-1-one], the inhibition at 10 µM is 102% at human B1R (setting [3]) and 101% on B1R of the rat (setting [4]).
